{"source": "patent US20080069857A1", "about": "“Compositions And Methods For Inhibiting Adhesions” (priority 2006, published 2008)", "key": {"[1]": {"assay": "Budesonide solubility in saline", "assay_type": "physicochemical", "details": "saline or isotonic, thermodynamic from solid, 37° C., read-out: saturation solubility in saline", "protocol": "The maximum solubility of budesonide in saline was determined as described (Gennaro A R, editor. Remington: The Science and Practice of Pharmacy. 20th ed. Philadelphia, Pa.: Lippincott Williams & Wilkins, 2000, which is incorporated herein by reference). First, increasing amounts of budesonide were mixed with saline to provide budesonide concentration in the system from 25 mg/ml to 0.002 mg/ml. The mixtures were constantly stirred at 37° C. for 24 hours, and then centrifuged at 12,000 rpm for 5 minutes to separate the solution phase from the solid phase. The budesonide concentrations in the solution phase were measured by High Performance Liquid Chromatography (HPLC). The saturation solubility of budesonide in saline was determined by extrapolating the line segment, of which slope was 0, to y-axis.\nIn a separate experiment, budesonide-saline 0.13 mg/ml was prepared as described above, divided into 1 ml aliquots, and incubated at 37° C. with constant stirring. At timed intervals, an aliquot of budesonide-saline was taken and centrifuged at 12,000 rpm for 5 minutes to separate 0.8 ml of supernatant for HPLC analysis. The remaining 0.2 ml, potentially containing precipitated budesonide, was dissolved in 0.8 ml acetonitrile and analyzed with HPLC. […]"}, "[2]": {"details": "United States Pharmacopoeia classification \"practically insoluble\"; cited from earlier work"}, "[3]": {"tested_on": "TNF-α production by primary mouse macrophages", "assay": "TNF-α production by LPS-challenged macrophages", "assay_type": "cell-based, mouse (C57/B16)", "details": "macrophages stimulated with LPS", "protocol": "(§1) C57/B16 mice were purchased from Taconic (Hudson, N.Y.). 2 ml of 3% (w/v) sterile thioglycollate solution (DIFCO Laboratories, Detroit, Mich.) was injected into the peritoneal cavity. Four days after injection, the mice were euthanized by CO2, and 6 ml of ice-cold PBS buffer containing 5 mM EDTA was injected. After agitating the peritoneum with forceps, a macrophage-containing solution was aspirated. The cells were placed immediately into iced DMEM on ice prior to washing, counting and plating. Approximately 10^7 cells per mouse were obtained.\n(§2) Non-adherent cells were removed by washing with 200 μl/well PBS buffer. Then 100 μl of DMEM with 10% FBS and 100 μl of medium pre-incunated with hydrogels (Sec. 2.2.9), or known concentrations of dexamethasone, were added to the adherent macrophages in each well. After incubation for 24 h at 37° C. in 5% CO2, 25 μl of 900 ng/ml of LPS (Sigma, St. Louis, Mo.; Catalog #L-4391) was added to each well to a final concentration of 100 ng/ml. After incubation for a further 16 h, the media were collected and stored at −80° C. until analyzed. The concentration of TNF-α, IL-6, and dexamethasone in those media were measured by ELISA (enzyme-linked immunosorbent assay). The ELISA kits for TNF-α, IL-6, and dexamethasone were purchased from R&D Systems (DuoSet, Cat DY406), BioLegend (Mouse IL-6 ELISA MAX™ Set (Deluxe)), and Neogen Corporation, respectively."}, "[4]": {"tested_on": "IL-6 production by primary mouse macrophages", "assay": "IL-6 production by LPS-challenged macrophages", "assay_type": "cell-based, mouse (C57/B16)", "details": "macrophages stimulated with LPS", "protocol": "as §1, §2"}, "[5]": {"tested_on": "Human mesothelial cells (ATCC, CRL-9444)", "method": "In vitro cell viability assay: Human mesothelial cells (ATCC, CRL-9444) were cultured in Medium 199, containing Earle's salts, L-glutamine, and 2.2 g/L sodium bicarbonate and supplemented with 3.3 nM epidermal growth factor, 400 nM hydrocortisone, 870 nM insulin, 20 mM HEPES, and 10% fetal bovine serum. Cells from passage 5 through 25 were used for the following studies. Mesothelial cells were seeded into 24-well plates at a density of 50,000 cells per well in 1 ml of culture medium. […] After varying periods of incubation in the presence of the hydrogels, cell viability was assessed with an MTT assay kit (Promega CellTiter 96 Non-Radioactive Cell Proliferation Assay).\nCell proliferation assay. […] After varying periods of incubation in the presence of the hydrogels, cell viability was assessed with an MTT assay kit (Promega CellTiter 96 Non-Radioactive Cell Proliferation Assay).\nMesothelial cells were grown and maintained in a complete growth medium (GIBCO: Medium199 with Earle's BSS, 0.75 mM L-glutamine and 1.25 g/L sodium bicarbonate supplemented with 3.3 nM epidermal growth factor, 400 nM hydrocortisone, 870 nM insulin, 20 mM HEPES and 10% fetal bovine serum) at 37° C. in 5% CO2. […] The purple formazan produced by active mitochondria was solubilized using 1 ml detergent solution and then read at 570 nm by plate reader (Molecular Devices: SpectraMax 384, Union City, Calif.). […]"}, "peritoneal adhesions": {"tested_on": "peritoneal adhesions", "details": "1 week after second laparotomy", "protocol": "Repeated laparotomy model. Female albino rabbits (Oryctolagus cuniculus; New Zealand White) (3±0.5 kg) were used. The first laparotomy and post-operation care were performed as described above. A 2nd laparotomy was performed after 1 week. On examination prior to the 2nd laparotomy, animals were excluded from the 2nd laparotomy for the following: (i) loss of more than 15% of body weight since the 1st laparotomy; (ii) poor feeding. On laparotomy, adhesions were scored as previously then lysed (cut). The previously excised abdominal wall was re-abraded 50 times unidirectionally, and the cecum surface between 6-12th haustra was re-abraded 150-200 times bidirectionally using a sterile brush until a bleeding bed was obtained.\nThirty animals were assigned randomly to experimental groups and test materials were applied on the injured areas. The operator was blinded as to the nature of the materials. HA-ADH and HA-CHO were sterilized by germicidal UV illumination for 2 hours and dissolved in 5 ml sterile saline, respectively. Ten ml of gel were applied on the injured sites with a dual valve applicator as previously. As controls, a group of animals received no treatment, and another group received 10 ml saline.\nAfter treatment of the injured areas, the peritoneum and abdominal wall were closed with 2-0 Ethilon and 3-0 Dexon, respectively. The skin was closed with 2-0 Ethilon. Animals were allowed to awaken and had food and water ad libitum. Buprenorphine 0.02-0.03 mg/kg was administered sc 8-12 hours interval until 48 hours post-surgery. The animals were sacrificed 1 week after the second laparotomy by intravenous injection of sodium pentobarbital. Adhesions were scored in two ways. (i) Quality of adhesions was scored as follows: Adhesions were scored using a modification of a reported method (Burns J W, Skinner K, Colt J, Sheidlin A, Bronson R, Yaacobi Y, et al. Prevention of tissue injury and postsurgical adhesions by precoating tissues with hyaluronic acid solutions. Journal of Surgical Research 1995;59:644-652, which is incorporated herein by reference). Score 0=no adhesion, score 1=tissue adherence that would separate with gravity, score 2=tissue adherence separable by blunt dissection, score 3=adhesion requiring sharp dissection. If there were multiple adhesions of different scores, we chose the higher one as a representative score. (ii) Area of score 2 or 3 adhesions was measured for quantitative evaluation of the adhesions. The location of adhesions (whether they include suture sites or not; location and number of cecal haustra involved in the adhesion) and weight changes were recorded. Tissues recovered from the necropsy were fixed in 10% formalin, embedded in paraffin, sectioned, and stained with hematoxylin and eosin for histological examination.\nPeritoneal adhesions were induced in female albino rabbits (Oryctolagus cuniculus; New Zealand White) (3±0.5 kg) through repeated laparotomies as described in our previous study [tPA]. Briefly, cecum abrasion and excision of abdominal wall were performed to induce de novo adhesions (Yeo et al. In situ cross-linkable hyaluronic acid hydrogels prevent post-operative abdominal adhesions in a rabbit model. Biomaterials 2006;27:4698-4705, which is incorporated herein by reference). A second laparotomy was performed after 1 week to cut the adhesions and introduce additional injuries to the same locations as those injured in the first laparotomy. […]"}}, "data": [{"compound": "CCCC1O[C@@H]2C[C@H]3[C@@H]4CCC5=CC(=O)C=C[C@]5(C)[C@H]4[C@@H](O)C[C@]3(C)[C@]2(C(=O)CO)O1", "note": "(some centres unmarked) [Budesonide]", "values": [{"measurement": "solubility at 24 h", "setting": "[1]", "value": 27, "unit": "µg/mL"}, {"measurement": "solubility in water", "setting": "[2]", "value": "< 100", "unit": "µg/mL"}]}, {"compound": "C[C@@H]1C[C@H]2[C@@H]3CCC4=CC(=O)C=C[C@]4(C)[C@@]3(F)[C@@H](O)C[C@]2(C)[C@@]1(O)C(=O)CO", "note": "[Dexamethasone]", "values": [{"measurement": "concentrations with no effect on production of TNF-α", "setting": "[3]", "value": "lower than 10^−9 M"}, {"measurement": "concentrations with no effect on production of IL-6", "setting": "[4]", "value": "lower than 10^−9 M"}]}, {"compound": "HA-adipic dihydrazide [HA-ADH]", "values": [{"measurement": "effect of polymers on mesothelial cell viability (MTT)", "setting": "[5]", "value": "small reductions in cell viability"}]}, {"compound": "hyaluronic acid [HA, reference compound]", "values": [{"measurement": "effect of polymers on mesothelial cell viability (MTT)", "setting": "[5]", "value": "small reductions in cell viability"}]}, {"compound": "tPA: bolus of tPA solution (2.2 mg Activase) in the absence of HAX", "values": [{"measurement": "Qualitative (score) % frequency, score 0", "setting": "peritoneal adhesions; 10 ml applied on injured sites", "value": 25, "unit": "%"}, {"measurement": "Qualitative (score) % frequency, score 1", "setting": "peritoneal adhesions; 10 ml applied on injured sites", "value": 0, "unit": "%"}, {"measurement": "Qualitative (score) % frequency, score 2", "setting": "peritoneal adhesions; 10 ml applied on injured sites", "value": 0, "unit": "%"}, {"measurement": "Qualitative (score) % frequency, score 3", "setting": "peritoneal adhesions; 10 ml applied on injured sites", "value": 75, "unit": "%"}, {"measurement": "Quantitative (adhesion area), median", "setting": "peritoneal adhesions; area of score 2 or 3 adhesions", "value": 2.4, "unit": "cm^2"}]}]}
